Experimental findings from patent publication US20210255193A1, “LYSINE REACTIVE PROBES AND USES THEREOF” (The Scripps Research Institute, priority 2017, published 2021) are described below.

Assay in all cases: competitive isoTOP-ABPP
What all share (format): binding

In assay [1] the target is T1, PNPO Pyridoxine-5-phosphate oxidase (Homo sapiens, UniProt Q9NVS9).
T1 construct: endogenous in cells; host or cells: MDA-MB-231 (soluble fraction of lysate)
T1 sequence (Q9NVS9 1-261): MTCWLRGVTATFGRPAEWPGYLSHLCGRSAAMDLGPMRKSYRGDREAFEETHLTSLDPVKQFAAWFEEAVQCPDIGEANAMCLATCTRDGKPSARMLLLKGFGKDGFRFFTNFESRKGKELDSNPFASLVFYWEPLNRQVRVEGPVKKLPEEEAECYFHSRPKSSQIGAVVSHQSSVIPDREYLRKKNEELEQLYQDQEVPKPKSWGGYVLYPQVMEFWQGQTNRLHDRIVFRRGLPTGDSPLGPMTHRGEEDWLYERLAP
Conditions: 50 uM_231_sol_in vitro. In short, it runs like this: (§1)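 Fragments at 50 μM (activated esters) or 100 μM (guanidinylating agents) were incubated with 0.5 ml lysate before probe labeling. After 0.1 mM STP-alkyne for 1 h, samples were clicked to isotopically distinct TEV tags, and R taken as DMSO-over-compound MS1 peak-area ratio.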

Assay [2] addresses T2, GLUD1 Glutamate dehydrogenase 1, mitochondrial (Homo sapiens, UniProt P00367).
T2 construct: isoTOP-ABPP experiments performed in cell lysates (in vitro); endogenous in cells; host or cells: MDA-MB-231 soluble lysate
Conditions: 50 uM_231_sol_in vitro; possible other lysine P00367_K477. In short, it runs like this:
as §1

The target of assay [3] is T3, DCTN2 Dynactin subunit 2 (Homo sapiens, UniProt Q13561).
T3 construct: isoTOP-ABPP experiments performed in cell lysates (in vitro); endogenous in cells; host or cells: soluble proteome of human cancer cell lines (MDA-MB-231, Ramos, Jurkat)
T3 sequence (Q13561 whole entry): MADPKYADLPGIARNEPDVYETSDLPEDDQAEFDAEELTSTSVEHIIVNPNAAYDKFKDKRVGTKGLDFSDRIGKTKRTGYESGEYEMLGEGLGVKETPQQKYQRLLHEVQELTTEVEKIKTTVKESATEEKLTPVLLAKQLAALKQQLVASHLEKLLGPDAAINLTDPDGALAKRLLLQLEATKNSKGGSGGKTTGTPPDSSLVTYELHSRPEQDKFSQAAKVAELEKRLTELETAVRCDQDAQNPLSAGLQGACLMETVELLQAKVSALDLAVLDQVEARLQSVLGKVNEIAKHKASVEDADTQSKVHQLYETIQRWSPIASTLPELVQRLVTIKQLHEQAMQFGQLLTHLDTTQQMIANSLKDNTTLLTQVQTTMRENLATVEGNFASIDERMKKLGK
To be noted: 50 uM_231_sol_in vitro. An outline of the steps: as §1

Assay [4] has as its target T4, STRN3 Striatin-3 (Homo sapiens, UniProt Q13033).
T4 construct: isoTOP-ABPP experiments performed in cell lysates (in vitro); endogenous in cells; host or cells: soluble proteome of human cancer cell lines (MDA-MB-231, Ramos, Jurkat)
T4 sequence (Q13033 1-797): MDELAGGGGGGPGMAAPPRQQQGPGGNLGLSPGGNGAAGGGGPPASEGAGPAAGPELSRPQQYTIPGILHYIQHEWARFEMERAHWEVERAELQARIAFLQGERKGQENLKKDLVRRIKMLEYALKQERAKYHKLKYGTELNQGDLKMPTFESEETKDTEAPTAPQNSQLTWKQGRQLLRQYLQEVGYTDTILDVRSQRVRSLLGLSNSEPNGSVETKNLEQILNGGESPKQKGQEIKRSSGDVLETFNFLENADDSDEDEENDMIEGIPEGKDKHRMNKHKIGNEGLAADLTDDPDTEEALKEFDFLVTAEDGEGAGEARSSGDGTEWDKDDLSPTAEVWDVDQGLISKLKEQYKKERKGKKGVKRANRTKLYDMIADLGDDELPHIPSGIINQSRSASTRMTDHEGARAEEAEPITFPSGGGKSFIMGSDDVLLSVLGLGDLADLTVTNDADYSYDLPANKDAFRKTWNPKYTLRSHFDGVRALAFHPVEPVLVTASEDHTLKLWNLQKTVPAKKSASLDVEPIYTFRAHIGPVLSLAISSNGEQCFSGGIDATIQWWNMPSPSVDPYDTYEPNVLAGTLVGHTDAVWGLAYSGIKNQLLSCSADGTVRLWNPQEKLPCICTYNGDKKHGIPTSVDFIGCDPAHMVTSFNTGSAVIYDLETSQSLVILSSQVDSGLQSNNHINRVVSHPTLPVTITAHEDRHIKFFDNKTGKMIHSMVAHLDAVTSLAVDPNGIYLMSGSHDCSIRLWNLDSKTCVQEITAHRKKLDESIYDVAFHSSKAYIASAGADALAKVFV
To be noted: 50 uM_231_sol_in vitro. In short, it runs like this: as §1

Assay [5] addresses T5, NPEPPS Puromycin-sensitive aminopeptidase (Homo sapiens, UniProt P55786).
T5 construct: isoTOP-ABPP experiments performed in cell lysates (in vitro); endogenous in cells; host or cells: soluble proteome of human cancer cell lines (MDA-MB-231, Ramos, Jurkat)
To be noted: 50 uM_231_sol_in vitro. In short, it runs like this:
as §1

T5 sequence (P55786 whole entry): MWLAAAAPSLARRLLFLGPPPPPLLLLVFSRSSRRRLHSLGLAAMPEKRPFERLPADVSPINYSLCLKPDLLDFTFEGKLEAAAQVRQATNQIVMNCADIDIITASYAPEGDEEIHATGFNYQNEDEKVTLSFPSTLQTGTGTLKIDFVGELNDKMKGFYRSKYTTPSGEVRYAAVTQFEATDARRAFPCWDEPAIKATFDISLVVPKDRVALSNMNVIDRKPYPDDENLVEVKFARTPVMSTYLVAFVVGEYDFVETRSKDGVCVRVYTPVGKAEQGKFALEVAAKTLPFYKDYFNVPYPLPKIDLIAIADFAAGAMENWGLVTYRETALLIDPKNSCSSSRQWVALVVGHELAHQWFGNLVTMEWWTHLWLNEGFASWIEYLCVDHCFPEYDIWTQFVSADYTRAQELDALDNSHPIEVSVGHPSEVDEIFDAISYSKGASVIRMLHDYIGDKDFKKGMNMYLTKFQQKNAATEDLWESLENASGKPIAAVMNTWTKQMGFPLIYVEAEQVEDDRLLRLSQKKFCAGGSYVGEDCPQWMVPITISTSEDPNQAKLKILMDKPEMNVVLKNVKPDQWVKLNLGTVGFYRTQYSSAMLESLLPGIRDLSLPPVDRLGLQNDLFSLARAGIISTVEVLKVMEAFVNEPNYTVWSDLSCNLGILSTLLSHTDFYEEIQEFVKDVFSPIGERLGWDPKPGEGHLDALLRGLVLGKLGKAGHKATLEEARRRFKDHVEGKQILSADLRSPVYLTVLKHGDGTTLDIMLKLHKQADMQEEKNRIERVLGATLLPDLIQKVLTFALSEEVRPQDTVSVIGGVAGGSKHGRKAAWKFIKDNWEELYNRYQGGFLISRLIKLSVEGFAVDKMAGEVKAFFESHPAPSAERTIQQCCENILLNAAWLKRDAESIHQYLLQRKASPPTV
T2 sequence (P00367 54-558): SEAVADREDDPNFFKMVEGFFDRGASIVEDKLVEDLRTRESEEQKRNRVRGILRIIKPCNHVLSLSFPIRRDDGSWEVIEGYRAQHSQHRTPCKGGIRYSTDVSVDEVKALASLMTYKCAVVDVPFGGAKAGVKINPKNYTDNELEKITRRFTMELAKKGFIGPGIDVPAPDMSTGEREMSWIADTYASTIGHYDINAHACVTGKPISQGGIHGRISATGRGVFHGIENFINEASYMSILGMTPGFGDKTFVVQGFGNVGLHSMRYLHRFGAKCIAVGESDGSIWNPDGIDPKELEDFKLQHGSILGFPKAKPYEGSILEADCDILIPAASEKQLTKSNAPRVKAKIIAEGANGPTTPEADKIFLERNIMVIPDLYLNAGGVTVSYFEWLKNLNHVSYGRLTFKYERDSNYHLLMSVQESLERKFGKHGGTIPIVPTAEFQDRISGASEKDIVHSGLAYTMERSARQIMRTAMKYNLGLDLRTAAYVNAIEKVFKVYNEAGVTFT

`NC(=O)c1cc(C(F)(F)F)cc(C(F)(F)F)c1` [fragment 51, reference compound]: the “isoTOP-ABPP ratio, lysine Q9NVS9_K100” value in assay [1] is recorded as 0.9. The “isoTOP-ABPP ratio, lysine P00367_K480” value in assay [2] was 1.5. The “isoTOP-ABPP ratio, lysine Q13561_K175” value in assay [3] is reported as 0.9. In assay [4], the “isoTOP-ABPP ratio, lysine Q13033_K755” value amounted to 0.9. The “isoTOP-ABPP ratio, lysine P55786_K712” value in assay [5] amounted to 1.0.
